Experimental data reported in PubChem BioAssay (NCI).
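Grown in 96-well plates, cells were treated for 48 hours with each compound at five concentrations. Insufficient inhibition: endpoint recorded as highest concentration tested. GI50 = concentration required for 50% inhibition of growth. The concentration for full growth arrest is given as TGI.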

What was measured:
Test in all cases: inhibition of tumour cell growth, NCI panel, 48 h
MCF7 breast = test system: MCF7 breast
HOP-92 NSCLC = test system: HOP-92 NSCLC
MOLT-4 leukemia = test system: MOLT-4 leukemia
A498 renal = test system: A498 renal
EKVX NSCLC = test system: EKVX NSCLC
SNB-19 CNS = test system: SNB-19 CNS
HT29 colon = test system: HT29 colon
MALME-3M melanoma = test system: MALME-3M melanoma
ACHN renal = test system: ACHN renal
PC-3 prostate = test system: PC-3 prostate

Row | SMILES | TGI (MCF7 breast) [µM] | TGI (HOP-92 NSCLC) [µM] | TGI (MOLT-4 leukemia) [µM] | TGI (A498 renal) [µM] | TGI (EKVX NSCLC) [µM] | TGI (SNB-19 CNS) [µM] | TGI (HT29 colon) [µM] | TGI (MALME-3M melanoma) [µM] | GI50 (MCF7 breast) [µM] | GI50 (HOP-92 NSCLC) [µM] | GI50 (MOLT-4 leukemia) [µM] | GI50 (SNB-19 CNS) [µM] | GI50 (ACHN renal) [µM] | TGI (ACHN renal) [µM] | GI50 (PC-3 prostate) [µM] | TGI (PC-3 prostate) [µM] | GI50 (HT29 colon) [µM] | GI50 (MALME-3M melanoma) [µM] | GI50 (A498 renal) [µM] | GI50 (EKVX NSCLC) [µM]
1 | CCCS(=O)c1nc(COC(=O)NC)c(COC(=O)NC)n1C (centres undefined) | > 100 | > 100 | > 100 | > 100 | > 100 | > 100 | > 100 | > 100 | – | – | – | – | – | – | – | – | – | – | – | –
2 | O=C(NCc1ccco1)C1CCN(S(=O)(=O)c2ccc(Cl)cc2)CC1 | > 100 | > 100 | > 100 | – | – | > 100 | > 100 | > 100 | 37.8 | > 100 | 74.1 | > 100 | > 100 | > 100 | 73.8 | > 100 | > 100 | > 100 | – | –
3 | Cc1cc(-c2nc3n(c2/C=N/N=C(N)N)CCS3)c(C)s1 | – | – | > 100 | 33.6 | 34.6 | 35.3 | 37.6 | – | – | – | 30.1 | 17.2 | 20 | 39.5 | 13.1 | 27.7 | 17.4 | – | 18.5 | 15.2
4 | COC(=O)C12C34C=CC5(CCC6(C=CC1(CC3)O6)C52C(=O)OC)O4 (centres undefined) | – | > 100 | > 100 | > 100 | > 100 | > 100 | > 100 | > 100 | – | – | – | – | – | > 100 | – | – | – | – | – | –
5 | O=C1C(Cl)=C(Nc2cc(Cl)ccc2O)C(=O)N1Cc1ccccc1 | 52.9 | – | > 81.9 | 35.7 | 50.5 | > 61.2 | 59.9 | 37.5 | 21 | – | 29.7 | 25.4 | 17.2 | 31.9 | 16.3 | 32.6 | 16.4 | 20.7 | 19.7 | 21.3
6 | CC(=O)[CH-]C(=O)c1ccccc1.CC(=O)[CH-]C(=O)c1ccccc1.CC[C@H](/C=C/C(C)[C@H]1CCC2[C@@H]3CC=C4C[C@@H]([O-])CC[C@]4(C)C3CC[C@@]21C)C(C)C.CC[C@H](/C=C/C(C)[C@H]1CCC2[C@@H]3CC=C4C[C@@H]([O-])CC[C@]4(C)C3CC[C@@]21C)C(C)C.Cl.[Ti+4] (some centres undefined) | – | – | > 25 | > 25 | > 25 | > 25 | > 25 | > 25 | – | – | > 25 | > 25 | > 25 | > 25 | – | – | > 25 | 10.5 | > 25 | > 25
7 | COC(=O)C(=O)C(C(C)=O)C(=O)NCc1ccccc1 (centres undefined) | – | > 100 | > 100 | > 100 | > 100 | > 100 | > 100 | > 100 | – | – | – | – | – | > 100 | – | – | – | – | – | –
8 | COc1cc2c3cc1Oc1c(OC)c(OC)cc4c1[C@@H](Cc1ccc(O)c(c1)Oc1ccc(cc1)C[C@@H]3N(C)CC2)N(C)CC4 | – | 24.7 | 34.2 | 38.5 | 31.3 | 45.3 | 24.1 | 31.7 | – | – | – | – | – | 38.1 | – | – | – | – | – | –
9 | O=C1C(Cl)=C(Cl)C(=O)N1c1cccc(C(F)(F)F)c1 | – | > 100 | > 86.6 | > 100 | > 100 | > 100 | > 100 | > 100 | – | – | – | – | – | > 100 | – | – | – | – | – | –
10 | CC(C)N1C(C)[C@@H](c2ccccc2)O[P@@]1(=O)CC1=CCCCC1 (some centres undefined) | – | > 100 | > 100 | > 100 | > 100 | – | > 100 | > 100 | – | – | – | – | – | > 100 | – | – | – | – | – | –
11 | COc1cccc2c(SCC(=O)Nc3ccccc3-c3ccccc3NC(=O)CSc3c4ccccc4nc4c(OC)cccc34)c3ccccc3nc12 | – | – | > 100 | – | 95 | > 100 | > 100 | – | – | – | – | – | – | > 100 | – | – | – | – | – | –
12 | C=C1C(=O)O[C@H]2[C@H]1CC/C(COC(=O)CCCCCCCC(=O)OC/C1=C/CC[C@@]3(C)O[C@H]3[C@H]3OC(=O)C(=C)[C@@H]3CC1)=C\CC[C@@]1(C)O[C@@H]21 | – | 5.07 | 11.4 | 28.7 | 8.87 | 19.2 | 4.23 | 5.3 | – | 2.16 | 0.791 | 4.85 | 1.85 | 5.51 | 1.96 | 4.62 | 2.02 | 2.17 | 12.3 | 2.55
13 | COc1cc2c3c(n([C@@H]4CCOC4)c(=O)c2cc1OC)-c1cc2c(cc1C3=O)OCO2 | > 100 | – | > 100 | – | – | > 100 | > 100 | – | < 0.01 | – | < 0.01 | < 0.01 | – | – | – | – | 0.0141 | – | – | –
14 | CCCCCN(CCCCC)C(=O)[C@H](CCC(=O)O)NC(=O)c1cc2ccccc2[nH]1 | – | 99.4 | 64.4 | > 100 | > 100 | > 100 | > 100 | > 100 | – | – | – | – | – | > 100 | – | – | – | – | – | –
15 | CCOC(=O)C(=O)Nc1c(C)cccc1C(C)(C)C | – | > 100 | > 100 | – | > 100 | > 100 | > 100 | > 100 | – | – | – | – | – | > 100 | – | – | – | – | – | –
16 | CCn1cc(C(=O)N/N=C/c2cccs2)c(=O)c2cc(F)c(N3CCNC(C)C3)c(F)c21 (centres undefined) | – | 2.38 | – | 21.1 | 2.93 | 2.96 | 3.12 | – | – | 1.09 | – | 1.61 | 1.67 | 3.04 | 1.45 | 2.84 | 1.67 | – | 3.64 | 1.47
17 | COc1cccc(N2CCN(c3ncnc4cc[nH]c34)CC2)c1 | 47.4 | – | 21.4 | 79.3 | > 100 | > 100 | > 100 | 55.3 | 2.65 | – | 2.46 | > 100 | 19 | > 100 | 6.99 | > 100 | 20 | 10 | 1.65 | 0.94
18 | C=CCC(N[C@H](CO)c1ccccc1)c1ccccn1 (some centres undefined) | – | – | – | > 100 | > 100 | – | > 100 | > 100 | – | – | – | – | > 100 | > 100 | > 100 | > 100 | > 100 | > 100 | > 100 | > 100
